From BindingDB's records for doi:10.1021/jm00061a009 (National Institute of Diabetes and Digestive and Kidney …, 1993)

Experiment: Inhibition of [3H](+)-pentazocine binding to sigma receptor of guinea pig brain homogenates

Structure (SMILES) | Ki [nM]
c1ccc2sc(C3(N4CCCCCC4)CCCC3)cc2c1 [1-(1-Benzo[b]thiophen-2-yl-cyclopentyl)-azepane] | 2890
c1ccc2sc(C3(N4CCCC4)CCCC3)cc2c1 [1-(1-Benzo[b]thiophen-2-yl-cyclopentyl)-pyrrolidine] | 125
c1ccc2sc(C3(N4CCCCCC4)CCCCCC3)cc2c1 [1-(1-Benzo[b]thiophen-2-yl-cycloheptyl)-azepane] | 2710
NC1(c2cc3ccccc3s2)CCCCCC1 [1-Benzo[b]thiophen-2-yl-cycloheptylamine] | 9170
NC1(c2cc3ccccc3s2)CCCCC1 [1-Benzo[b]thiophen-2-yl-cyclohexylamine] | 3170
NC1(c2cc3ccccc3s2)CCCC1 [1-Benzo[b]thiophen-2-yl-cyclopentylamine] | 1730
c1ccc2sc(C3(N4CCCC4)CCCCC3)cc2c1 [1-(1-Benzo[b]thiophen-2-yl-cyclohexyl)-pyrrolidine] | 168
c1ccc2sc(C3(N4CCCC4)CCCCCC3)cc2c1 [1-(1-Benzo[b]thiophen-2-yl-cycloheptyl)-pyrrolidine] | 720
c1ccc2sc(C3(N4CCCCCC4)CCCCC3)cc2c1 [1-(1-Benzo[b]thiophen-2-yl-cyclohexyl)-azepane] | 674
c1ccc2sc(C3(N4CCCCC4)CCCCCC3)cc2c1 [1-(1-Benzo[b]thiophen-2-yl-cycloheptyl)-piperidine] | 2230
c1ccc2sc(C3(N4CCCCC4)CCCC3)cc2c1 [1-(1-Benzo[b]thiophen-2-yl-cyclopentyl)-piperidine] | 1100
